# Results as given in US20210254056A1, “IDENTIFICATION AND TARGETED MODULATION OF GENE SIGNALING NETWORKS” (CAMP4 THERAPEUTICS CORPORATION, priority 2017, published 2021).
# System: hepatocytes
# Test: RNA-seq of hepatocytes treated with Phase III failure compounds
# Conditions: hepatocytes
# Protocol: RNA-seq was performed to determine the effects of the compounds on hepatocytes.
# Significance was determined by the criteria of FPKM≥0.5, a log 2(fold-change)≥1, and a […].
smiles,measurement,setting,value
"CCC(CC)[C@H](NC(C)=O)[C@@H]1[C@H](O)[C@@H](C(=O)O)C[C@H]1NC(=N)N.O.O.O [peramivir (trihydrate), peramivir]",RNA-seq results: MCCC1 expression,gene MCCC1,−0.27
same,RNA-seq results: MCCC2 expression,gene MCCC2,−0.31
same,RNA-seq results: MCM6 expression,gene MCM6,−0.34
same,RNA-seq results: MEN1 expression,gene MEN1,0.18
same,RNA-seq results: MET expression,gene MET,−0.27
same,RNA-seq results: MGAT2 expression,gene MGAT2,−0.09
same,RNA-seq results: MKS1 expression,gene MKS1,0.23
same,RNA-seq results: MLH1 expression,gene MLH1,−0.18
same,RNA-seq results: MMAA expression,gene MMAA,−0.25
same,RNA-seq results: MMAB expression,gene MMAB,−0.09
same,RNA-seq results: MMADHC expression,gene MMADHC,−0.38
same,RNA-seq results: MOCS1 expression,gene MOCS1,0.03
same,RNA-seq results: MOGAT2 expression,gene MOGAT2,0.66
same,RNA-seq results: MOGS expression,gene MOGS,0.33
same,RNA-seq results: MPZ expression,gene MPZ,0.37
same,RNA-seq results: MRPL3 expression,gene MRPL3,−0.47
same,RNA-seq results: MTHFR expression,gene MTHFR,0.37
same,RNA-seq results: MTM1 expression,gene MTM1,−0.29
same,RNA-seq results: MTO1 expression,gene MTO1,−0.13
same,RNA-seq results: MTR expression,gene MTR,0.10
same,RNA-seq results: MTRR expression,gene MTRR,−0.43
same,RNA-seq results: MTTP expression,gene MTTP,−0.18
same,RNA-seq results: MVK expression,gene MVK,0.07
same,RNA-seq results: MYH9 expression,gene MYH9,0.20
same,RNA-seq results: MYO5B expression,gene MYO5B,−0.08
same,RNA-seq results: NAGS expression,gene NAGS,0.31
same,RNA-seq results: NARS2 expression,gene NARS2,−0.42
same,RNA-seq results: NAT2 expression,gene NAT2,−0.40
same,RNA-seq results: NBAS expression,gene NBAS,−0.22
same,RNA-seq results: NCF2 expression,gene NCF2,−0.20
same,RNA-seq results: NEK1 expression,gene NEK1,−0.22
same,RNA-seq results: NEK8 expression,gene NEK8,0.47
same,RNA-seq results: NEU1 expression,gene NEU1,−0.25
same,RNA-seq results: NFKB2 expression,gene NFKB2,0.30
same,RNA-seq results: NFKBIA expression,gene NFKBIA,−0.19
same,RNA-seq results: NFU1 expression,gene NFU1,−0.52
same,RNA-seq results: NGLY1 expression,gene NGLY1,−0.40
same,RNA-seq results: NHP2 expression,gene NHP2,0.65
same,RNA-seq results: NME1 expression,gene NME1,0.00
same,RNA-seq results: NOD2 expression,gene NOD2,0.30
same,RNA-seq results: NOP10 expression,gene NOP10,0.03
same,RNA-seq results: NOTCH1 expression,gene NOTCH1,0.23
same,RNA-seq results: NOTCH2 expression,gene NOTCH2,0.01
same,RNA-seq results: NPC1 expression,gene NPC1,−0.09
same,RNA-seq results: NR1H4 expression,gene NR1H4,0.00
same,RNA-seq results: NUBPL expression,gene NUBPL,−0.11
same,RNA-seq results: NUDT7 expression,gene NUDT7,−0.70
same,RNA-seq results: NUDT12 expression,gene NUDT12,−0.32
same,RNA-seq results: OAT expression,gene OAT,−0.40
same,RNA-seq results: OPA3 expression,gene OPA3,0.14
same,RNA-seq results: OTC expression,gene OTC,−0.33
same,RNA-seq results: PAF1 expression,gene PAF1,−0.04
same,RNA-seq results: PAH expression,gene PAH,−0.22
same,RNA-seq results: PANK2 expression,gene PANK2,−0.22
same,RNA-seq results: PAOX expression,gene PAOX,−0.04
same,RNA-seq results: PC expression,gene PC,0.27
same,RNA-seq results: PCCA expression,gene PCCA,−0.23
same,RNA-seq results: PCK2 expression,gene PCK2,0.18
same,RNA-seq results: PCSK9 expression,gene PCSK9,0.46
same,RNA-seq results: PCYT1A expression,gene PCYT1A,−0.07
same,RNA-seq results: PDGFRA expression,gene PDGFRA,−0.06
same,RNA-seq results: PDP1 expression,gene PDP1,−0.30
same,RNA-seq results: PEPD expression,gene PEPD,0.03
same,RNA-seq results: PEX11A expression,gene PEX11A,−0.27
same,RNA-seq results: PEX12 expression,gene PEX12,−0.20
same,RNA-seq results: PEX14 expression,gene PEX14,0.19
same,RNA-seq results: PFKM expression,gene PFKM,0.45
same,RNA-seq results: PGM1 expression,gene PGM1,−0.24
same,RNA-seq results: PHGDH expression,gene PHGDH,0.38
same,RNA-seq results: PHKA1 expression,gene PHKA1,−0.18
same,RNA-seq results: PHKA2 expression,gene PHKA2,0.11
same,RNA-seq results: PHKB expression,gene PHKB,−0.39
same,RNA-seq results: PHYH expression,gene PHYH,−0.26
same,RNA-seq results: PIEZO1 expression,gene PIEZO1,0.30
same,RNA-seq results: PIGA expression,gene PIGA,−0.37
same,RNA-seq results: PIGM expression,gene PIGM,−0.35
same,RNA-seq results: PKD1 expression,gene PKD1,0.61
same,RNA-seq results: PKD2 expression,gene PKD2,0.28
same,RNA-seq results: PKHD1 expression,gene PKHD1,0.34
same,RNA-seq results: PKLR expression,gene PKLR,0.35
same,RNA-seq results: PLA2G6 expression,gene PLA2G6,0.59
same,RNA-seq results: PLEKHM1 expression,gene PLEKHM1,0.10
same,RNA-seq results: PMVK expression,gene PMVK,0.39
same,RNA-seq results: PNP,gene PNP,−0.40
same,RNA-seq results: PNPLA2,gene PNPLA2,0.02
same,"RNA-seq results, POLD1",gene POLD1,0.24
same,RNA-seq results: POLD1,gene POLD1,0.30
same,"RNA-seq results, POLG2",gene POLG2,0.19
same,RNA-seq results: POLG2,gene POLG2,0.22
same,"RNA-seq results, POLG",gene POLG,0.03
same,RNA-seq results: POLG,gene POLG,0.10
same,"RNA-seq results, POR",gene POR,0.82
same,RNA-seq results: POR,gene POR,0.16
same,"RNA-seq results, PPAPDC2",gene PPAPDC2,−0.01
same,RNA-seq results: PPAPDC2,gene PPAPDC2,−0.14
same,"RNA-seq results, PPARA",gene PPARA,0.09
same,RNA-seq results: PPARA,gene PPARA,−0.14
same,"RNA-seq results, PPARG",gene PPARG,0.16
same,RNA-seq results: PPARG,gene PPARG,−0.47
same,"RNA-seq results, PPM1K",gene PPM1K,0.13
same,RNA-seq results: PPM1K,gene PPM1K,−0.24
same,"RNA-seq results, PRKCD",gene PRKCD,0.03
same,RNA-seq results: PRKCD,gene PRKCD,0.06
same,"RNA-seq results, PRODH",gene PRODH,0.2
same,RNA-seq results: PRODH,gene PRODH,−0.14
same,"RNA-seq results, PROS1",gene PROS1,−0.19
same,RNA-seq results: PROS1,gene PROS1,−0.20
same,"RNA-seq results, PROZ",gene PROZ,0.28
same,RNA-seq results: PROZ,gene PROZ,0.10
same,"RNA-seq results, PSAT1",gene PSAT1,0.26
same,RNA-seq results: PSAT1,gene PSAT1,−0.18
same,"RNA-seq results, PSMB8",gene PSMB8,0.02
same,RNA-seq results: PSMB8,gene PSMB8,0.08
same,"RNA-seq results, PSPH",gene PSPH,0.05
same,RNA-seq results: PSPH,gene PSPH,−0.12
same,"RNA-seq results, PTCH1",gene PTCH1,0.28
same,RNA-seq results: PTCH1,gene PTCH1,0.20
same,"RNA-seq results, PTRF",gene PTRF,−0.15
same,RNA-seq results: PTRF,gene PTRF,0.25
